These results are taken from patent publication US10190138B2, “Methods using short chain peracids to replace antibiotics for controlling fermentation process infection” (Ecolab USA Inc., priority 2012, dated 2019).

For data set [1] the following is noted: pH 4. The source says:
The issue of low solubility when using long chain peracids has been addressed by increasing the pH to above 7. […] Further, bleaching efficacy decreases proportionally with every pH unit increase over about 7.

Another data set relates to Lactobacilli. To be noted: 2 hours of contact time in the absence of yeast; cited from earlier work.
The test system of another data set is L. fermentum. Briefly: MRS broth fermentation, CO2 respirometry. Type of data set: cell-based, Lactobacillus fermentum. The note with it: 1 ppm, 1×10^5 cell/mL start. How it is done: Solutions of Vortexx and Octave were provided by the Ecolab, Inc. The antibiotic Virginiamycin was purchased from SantaCruz Biotechnology. Ethanol Red yeast (Fermentis), and Lactobacillus fermentum were revived from 10% glycerol stocks maintained at […]. Yeast was grown at 30° C. under aerobic conditions in either liquid YPD medium or on YPD agar prior to use in propagations and fermentations. Bacteria were grown at 30° C. under anaerobic conditions in either liquid MRS broth, and or on MRS agar plates. Liquefied corn mash and gluco-amylase enzyme was provided by Illinois River Energy (Rochelle, Ill.).
Fermentations were conducted in Wheaton glass bottles placed in a 30° C. recirculating water bath atop an 8-position magnetic stir-plate. Each bottle was sealed with a rubber septum cap and connected through ⅛″ tubing to a respirometer instrument (Challenger Instruments), which quantified the off-gassing of CO2 during fermentation.
MRS broth fermentations were conducted in 0.125 L Wheaton bottles, each containing the 100 mL of MRS broth and 4 mL propagated bacteria. […]
MRS broth, which contains only 0.6% solids compared to typical liquefied corn mash at 30% solids, represents a relatively simple test of the effectiveness of the peracid chemistries for controlling Lactobacillus growth. […] All bottles were placed monitored via respirometry under identical conditions. […]

As to `O=C(CCCCCCCCCCS(=O)(=O)O)OO` [11-sulfoundecane peroxoic acid], in data set [1], the solubility result is given as “about 1.3%”. In the case of `OO` [hydrogen peroxide], the “hydrogen peroxide required for effective bacterial control” value with Lactobacilli is 600 ppm. For Virginiamycin, in the data set with L. fermentum, the CO2 production entry is recorded as “failed to produce any CO2” and the bacterial growth result is recorded as “no bacterial growth”.
